Laboratory results published in ChEMBL document CHEMBL1130918, “Antineoplastic agents. 397: Isolation and structure of sesterstatins 4 and 5 from Hyrtios erecta (the Republic of Maldives)” (1998).
≈ marks a conversion by molar mass, not a printed value.

Tests used:
Type in all cases: functional
[1] = system: P388; experiment: Inhibitory activity against growth of P388 leukemia cells was determined; details: Mus musculus
[2] = system: NCI-H460; experiment: Inhibitory activity against growth of human lung NSC cancer cell line NCI-H460 was determined
[3] = system: U-251; experiment: Inhibitory activity against growth of human CNS cancer cell line U251 was determined
[4] = system: P388; experiment: Effective dose that causes inhibition of growth of P388 leukemia cells was determined; details: Mus musculus, read-out: ED50 (the source's name)
[5] = system: BXPC-3; experiment: Inhibitory activity against growth of human pancreatic cancer cell line BXPC-3 was determined
[6] = system: FaDu; experiment: Inhibitory activity against growth of human pharynx cancer cell line FADU was determined
[7] = system: DU-145; experiment: Inhibitory activity against growth of human prostate cancer cell line DU-145 was determined.
[8] = system: RPMI-7951; experiment: Inhibitory activity against growth of human melanomic cancer cell line RPMI-7951 was determined
[9] = system: SW-1736; experiment: Inhibitory activity against growth of human thyroid cancer cell line SW1736 was determined
[10] = system: KAT-4 cell line; experiment: Inhibitory activity against growth of human thyroid cancer cell line KAT-4 was determined
[11] = system: DU-145; experiment: Inhibitory activity against growth of human prostate cancer cell line DU-145 was determined

Row | Compound | GI50 [1] | GI50 [2] | GI50 [3] | EC50 [4] | GI50 [5] | GI50 [6] | GI50 [7] | GI50 [8] | GI50 [9] | GI50 [10] | GI50 [11]
1 | CC1(C)CCC[C@]2(C)[C@H]3C[C@@H](O)[C@]4(C)c5cocc5[C@@H](O)C[C@H]4[C@]3(C)CC[C@@H]12 [SESTERSTATIN 5] | > 10 µg/mL | 2.5 µg/mL (≈ 6.47 µM) | 1.9 µg/mL (≈ 4.91 µM) | > 10 µg/mL | 2.2 µg/mL (≈ 5.69 µM) | 1.9 µg/mL (≈ 4.91 µM) | 1.9 µg/mL (≈ 4.91 µM) | 2.1 µg/mL (≈ 5.43 µM) |  |  | 
2 | CC1(C)CCC[C@]2(C)[C@H]3C[C@@H](O)[C@]4(C)c5cocc5[C@H](O)C[C@H]4[C@]3(C)CC[C@@H]12 [SESTERSTATIN 4] | 4.9 µg/mL (≈ 12.7 µM) | 1.8 µg/mL (≈ 4.66 µM) |  | 4.87 µg/mL (≈ 12.6 µM) | 1.6 µg/mL (≈ 4.14 µM) | 2 µg/mL (≈ 5.17 µM) |  |  | 2.1 µg/mL (≈ 5.43 µM) | 2 µg/mL (≈ 5.17 µM) | 1.6 µg/mL (≈ 4.14 µM)
